Assays:
Format in all cases: cell-based
[1] = test system: Streptococcus thermophilus OLS3059 strain; assay: Fermentation promoting effect in UHT sterilized milk, pH of the fermentation liquid over time; settings: 43° C.; for fermentation promoting effect (pH of the fermentation liquid over time vs control): test substance 0.05 mmol/kg in UHT sterilized milk, starter 1% (vol/wt); for fermentation promoting effect (pH over time) of mixtures with guanosine in different mixing ratios: adenosine:guanosine 10:0, 7:3, 5:5, 3:7, inosine:guanosine 10:0, 7:3, 5:5, 4:6 (weight ratio), total 0.05 mmol/kg, UHT sterilized milk
Protocol: (§1) The above test substances were each added to UHT sterilized milk (cow milk sterilized by a UHT method (ultrahigh temperature sterilization method); sterilized at 130° C. for 2 seconds), and warmed to 43° C. […] To the warmed UHT sterilized milk, Streptococcus thermophilus OLS3059 strain (accession number FERM BP-10740) was inoculated as a starter in an inoculation amount of 1% (vol/wt) (corresponding to a bacterial cell concentration of 1 to 2×10^7 cfu/mL), and the fermentation was started at 43° C. As a control, the fermentation using UHT sterilized milk without the above test substances was also carried out. Herein, S. thermophilus OLS3059 strain was cultured using MRS (Difco) at 37° C. for 16 hours for preparation of the bacterial cells to be used in the fermentation below. After culturing using MRS, the bacterial cells were collected by centrifugation (8,000 g for 5 minutes), and then suspended into 0.8% sodium chloride solution. The resulting bacterial cell suspension (bacterial cell concentration of 1 to 2×10^9 cfu/mL) was used as a starter. In the following Examples using S. thermophilus, a S. thermophilus bacterial suspension prepared according to the same method as the present Example was used as a starter, unless otherwise stated.
The pH of the fermentation liquid was measured over time. A decrease in the pH in the lactic acid bacteria culture medium and the fermentation liquid indicates an increase in the amount of lactic acid production associated with the lactic acid bacterial fermentation and is used as an indicator of the progress degree of the lactic acid bacterial fermentation. […]
In this test, a 10 mM solution of each of the test substances (purines) in 0.1N NaOH was added to UHT sterilized milk in an amount such that the concentration of the test substance in the UHT sterilized milk was 0.05 mmol/kg, whereby UHT sterilized milk supplemented with the test substance was prepared. Additionally, as a control, the fermentation using UHT sterilized milk without the test substances (purines) was also carried out.
UHT sterilized milk supplemented with adenine which is a purine base, or a derivative thereof that is adenosine, deoxyadenosine, or adenylic acid (adenosine monophosphate; AMP) added as a test substance, was warmed to 43° C., subsequently S. thermophilus OLS3059 strain was inoculated as a starter in an amount of 1% (vol/wt), and the fermentation was started at 43° C. The pH of the fermentation liquid was measured over time. […]
The fermentation promoting effect on S. thermophilus was examined by the same method as described in Example 2, except that mixtures of adenosine and guanosine in different mixing ratios or mixtures of inosine and guanosine in different mixing ratios were used as test substances.

[2] = test system: Lactobacillus delbrueckii subsp. bulgaricus OLL1073R-1; assay: Fermentation promoting effect in UHT sterilized milk, pH over time; settings: adenylic acid 0.05 mmol/kg or 1:1 mixture 0.025% (wt/wt); UHT sterilized milk with 0.2% casein-hydrolyzed peptide, 43° C.
Protocol: as §1
(§2) The pH of the fermentation liquid was measured over time. A decrease in the pH in the lactic acid bacteria culture medium and the fermentation liquid indicates an increase in the amount of lactic acid production associated with the lactic acid bacterial fermentation and is used as an indicator of the progress degree of the lactic acid bacterial fermentation.
(§3) Starters (bacterial suspensions) were prepared from the respective bacterial strains by the same method as described in Example 1. The starter was inoculated in an inoculation amount of 1% (vol/wt). Except for these points, the fermentation promoting effect was evaluated in the same manner as in Example 1.
(§4) The preparation method and the inoculation amount (%) of the starter are as described in Example 1. Except for these points, the fermentation promoting effect was evaluated in the same manner as in Example 1.

[3] = test system: Lactobacillus gasseri OLL2716; assay: as above; settings: adenylic acid 0.05 mmol/kg or 1:1 mixture 0.025% (wt/wt); UHT sterilized milk with 0.2% casein-hydrolyzed peptide, 43° C.
Protocol: as §1, §2, §3, §4

[4] = test system: Lactobacillus helveticus OLL1482; assay: as above; settings: adenylic acid 0.05 mmol/kg or 1:1 mixture 0.025% (wt/wt); UHT sterilized milk with 0.2% casein-hydrolyzed peptide, 43° C.
Protocol: as §1, §2, §3, §4

[5] = test system: Lactococcus lactis subsp. lactis OLS3445; assay: as above; settings: adenylic acid 0.05 mmol/kg or 1:1 mixture 0.025% (wt/wt); UHT sterilized milk with 0.2% casein-hydrolyzed peptide, 43° C.
Protocol: as §1, §2, §3, §4

[6] = test system: Leuconostoc lactis OLS5167; assay: as above; settings: adenylic acid 0.05 mmol/kg or 1:1 mixture 0.025% (wt/wt); UHT sterilized milk with 0.2% casein-hydrolyzed peptide, 43° C.
Protocol: as §1, §2, §3, §4

[7] = test system: Lactobacillus acidophilus OLL1836; assay: Fermentation promoting effect in UHT sterilized milk with casein-hydrolyzed peptide, pH over time; settings: adenylic acid 0.05 mmol/kg or 1:1 mixture 0.025% (wt/wt); UHT sterilized milk with 0.2% casein-hydrolyzed peptide, 43° C.
[8] = test system: Lactobacillus johnsonii OLL2725; assay: as above; settings: adenylic acid 0.05 mmol/kg or 1:1 mixture 0.025% (wt/wt); UHT sterilized milk with 0.2% casein-hydrolyzed peptide, 43° C.

Molecule	fermentation promoting effect (pH of the fermentation liquid over time vs control) [1]	also measured
Nc1ncnc2nc[nH]c12 [adenine]	notable fermentation promoting effects	–
Nc1ncnc2c1ncn2[C@@H]1O[C@H](CO)[C@@H](O)[C@H]1O [adenosine]	notable fermentation promoting effects	fermentation promoting effect (pH over time) of mixtures with guanosine in different mixing ratios [1]: exhibit the fermentation promoting effect in a concentration-dependent manner
Nc1ccn([C@@H]2O[C@H](CO)[C@@H](O)[C@H]2O)c(=O)n1 [cytidine]	did not exhibit the fermentation promoting effects	–
Nc1cc[nH]c(=O)n1 [cytosine]	did not exhibit the fermentation promoting effects	–
Nc1ncnc2c1ncn2[C@H]1C[C@H](O)[C@@H](CO)O1 [deoxyadenosine]	notable fermentation promoting effects	–
Nc1nc2c(ncn2[C@H]2C[C@H](O)[C@@H](CO)O2)c(=O)[nH]1 [deoxyguanosine]	did not exhibit the fermentation promoting effects	–
OC[C@H]1O[C@@H](n2cnc3c(O)ncnc32)C[C@@H]1O [deoxyinosine]	notable fermentation promoting effects	–
Nc1nc2nc[nH]c2c(=O)[nH]1 [guanine]	did not exhibit the fermentation promoting effects	–
Nc1nc2c(ncn2[C@@H]2O[C@H](CO)[C@@H](O)[C@H]2O)c(=O)[nH]1 [guanosine]	did not exhibit the fermentation promoting effects	fermentation promoting effect (pH over time) of mixtures with guanosine in different mixing ratios [1]: does not exhibit the fermentation promoting effect
O=c1[nH]cnc2nc[nH]c12 [hypoxanthine]	notable fermentation promoting effects	–
OC[C@H]1O[C@@H](n2cnc3c(O)ncnc32)[C@H](O)[C@@H]1O [inosine]	notable fermentation promoting effects	fermentation promoting effect (pH over time) of mixtures with guanosine in different mixing ratios [1]: exhibit the fermentation promoting effect in a concentration-dependent manner
Cc1cn([C@H]2C[C@H](O)[C@@H](CO)O2)c(=O)[nH]c1=O [thymidine]	did not exhibit the fermentation promoting effects	–
Cc1c[nH]c(=O)[nH]c1=O [thymine]	did not exhibit the fermentation promoting effects	–
O=c1cc[nH]c(=O)[nH]1 [uracil]	did not exhibit the fermentation promoting effects	–
O=c1[nH]c(=O)c2[nH]c(=O)[nH]c2[nH]1 [uric acid]	did not exhibit the fermentation promoting effects	–
O=c1ccn([C@@H]2O[C@H](CO)[C@@H](O)[C@H]2O)c(=O)[nH]1 [uridine]	did not exhibit the fermentation promoting effects	–
O=c1[nH]c(=O)c2[nH]cnc2[nH]1 [xanthine]	did not exhibit the fermentation promoting effects	–
adenylic acid [AMP]	notable fermentation promoting effects	fermentation promoting effect (pH over time vs control) [2]: shown in all the strains tested; fermentation promoting effect (pH over time vs control) [3]: shown in all the strains tested; fermentation promoting effect (pH over time vs control) [4]: shown in all the strains tested; fermentation promoting effect (pH over time vs control) [5]: shown in all the strains tested; fermentation promoting effect (pH over time vs control) [6]: shown in all the strains tested; fermentation promoting effect (pH over time vs control) [7]: shown in all the strains tested; fermentation promoting effect (pH over time vs control) [8]: shown in all the strains tested
